Measurements: patent US4810721A, “Pyrrolidineamide derivative having anti-prolyl endopeptidase” (Suntory Limited, priority 1986, dated 1989)

Key:
[1] = test system: DDY strain male mice; test: Memory fixation test in mice (passive avoidance learning); assay type: in vivo; conditions: 5 mice, assessed 24 hours after learning, physiological saline control 47 sec.
Description: The measurement was conducted in accordance with the method described in Experientia 40, 506 (1984) with a slight modification made by the inventors. Several of the compounds of the invention were checked for their ability to enhance long-term memory fixation in the passive avoidance learning method using an apparatus which has an electrifiable grid floor and a refuge platform on one end of the floor. […] One hour after the administration, electric shocks were applied to the mice in a black box so that they would acquire passive avoidance learning.
The results of the test were assessed 24 hours after the learning in terms of the memory fixation acquired in the passive avoidance learning by measuring the residence time (latency) during which the mice stayed on the platform. The results between the test groups which received the test compound and the control group which received physiological saline in place of the test compound were compared.

[2] = target: prolyl endopeptidase (Elizabethkingia meningoseptica, UniProt P27028); test: Anti-prolyl endopeptidase activity (inhibition of digestion of Z-glycyl-prolyl-β-naphthylamide); assay type: biochemical; conditions: amount for 50% inhibition; 0.0025M Z-glycyl-prolyl-β-naphthylamide (0.25 ml), pH 7.0, 35° C., 10 minutes, absorbance at 410 nm
Chain of prolyl endopeptidase (P27028 21-705): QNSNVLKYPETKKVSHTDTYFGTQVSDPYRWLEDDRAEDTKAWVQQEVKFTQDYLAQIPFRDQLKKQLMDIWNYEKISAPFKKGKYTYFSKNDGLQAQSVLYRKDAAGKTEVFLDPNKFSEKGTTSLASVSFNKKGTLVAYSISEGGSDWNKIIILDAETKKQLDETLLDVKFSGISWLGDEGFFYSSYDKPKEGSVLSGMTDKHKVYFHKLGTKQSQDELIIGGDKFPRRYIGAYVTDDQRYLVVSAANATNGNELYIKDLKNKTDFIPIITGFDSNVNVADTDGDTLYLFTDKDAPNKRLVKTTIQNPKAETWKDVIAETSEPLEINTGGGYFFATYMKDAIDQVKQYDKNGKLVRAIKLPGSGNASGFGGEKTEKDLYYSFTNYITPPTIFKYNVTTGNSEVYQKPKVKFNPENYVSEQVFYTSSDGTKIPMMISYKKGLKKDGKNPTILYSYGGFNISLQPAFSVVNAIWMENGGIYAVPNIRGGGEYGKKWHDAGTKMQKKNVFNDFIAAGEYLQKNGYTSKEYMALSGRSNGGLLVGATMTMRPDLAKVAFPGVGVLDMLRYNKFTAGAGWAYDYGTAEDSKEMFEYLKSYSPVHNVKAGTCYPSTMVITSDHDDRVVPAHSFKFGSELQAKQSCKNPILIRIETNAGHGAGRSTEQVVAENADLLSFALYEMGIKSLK
Description: The method of Yoshimoto and Tsuru [T. Yoshimoto and D. Tsuru, Agric. Biol. Chem., 42, 2417 (1978)] was used to measure the anti-prolyl endopeptidase activities of several compounds of the present invention. A mixture of 0.0025M Z-glycyl-prolyl-β-naphthylamide (0.25 ml), 0.1M phosphate buffer (pH, 7.0; 0.99 ml) and a solution of a particular anti-prolyl endopeptidase compound (0.01 ml) was incubated in a test tube at 37° C. for 3 minutes. Thereafter, 0.1 ml of a solution of prolyl endopeptidase (0.2 U/ml) was added and the mixture was incubated at 35° C. for 10 minutes. After the reaction, 2.0 ml of Triton X-100 in 1M acetate buffer (pH, 4.0) was added to the reaction mixture so that the final concentration of the surfactant might be 10%. The mixture was left at room temperature for 15 minutes and the absorbance (a) at 410 nm was measured.
A sample of a blind test was prepared by using the buffer instead of the anti-prolyl endopeptidase compound and its absorbance (b) was also measured. The percentage of inhibition against prolyl endopeptidase was calculated by the formula: […]
and the amount of a specific compound need to achieve 50% inhibition (IC50) was determined.

Row | IC50 [2] [μg/test tube] | SMILES | Latency ([1]; 1.0 mg/kg per os) [s] | Latency ([1]; 3.0 mg/kg per os) [s] | Latency ([1]; 0.3 mg/kg per os) [s]
1 | 0.04 | COc1ccc(C(=O)O[C@H]2C[C@@H](C(=O)N3CCCC3)N(C(=O)CCCc3ccccc3)C2)cc1 [SUAM 14501] | – | – | –
2 | 0.06 | O=C(O[C@H]1C[C@@H](C(=O)N2CCCC2)N(C(=O)CCCc2ccccc2)C1)c1ccccc1 [SUAM 14502, N-[N-(4-phenylbutanoyl)-cis-4-benzoyloxy-L-prolyl]pyrrolidine] | – | – | –
3 | 0.06 | O=C(O[C@H]1C[C@@H](C(=O)N2CCCC2)N(C(=O)CCCc2ccccc2)C1)c1ccc(Cl)cc1 [SUAM 14503, N-[N-(4-phenylbutanoyl)-cis-4-(4-chlorobenzoyloxy)-L-prolyl]pyrrolidine] | – | – | –
4 | 0.02 | O=C([C@@H]1C[C@H](Oc2ccccc2)CN1C(=O)CCCc1ccccc1)N1CCCC1 [SUAM 14504, N-[N-(4-phenylbutanoyl)-cis-4-phenoxy-L-prolyl]pyrrolidine] | – | – | –
5 | 0.04 | O=C([C@@H]1C[C@H](Oc2ccc(Cl)cc2)CN1C(=O)CCCc1ccccc1)N1CCCC1 [SUAM 14508, N-[N-(4-phenylbutanoyl)-cis-4-(4-chlorophenoxy)-L-prolyl]pyrrolidine] | – | – | –
6 | 0.03 | Cc1ccc(O[C@H]2C[C@@H](C(=O)N3CCCC3)N(C(=O)CCCc3ccccc3)C2)cc1 [SUAM 14509, N-[N-(4-phenylbutanoyl)-cis-4-(4-methylphenoxy)-L-prolyl]pyrrolidine] | – | 95 | –

Continued, molecule first:

Row | SMILES | IC50 [2] [μg/test tube] | Latency ([1]; 1.0 mg/kg per os) [s] | Latency ([1]; 3.0 mg/kg per os) [s] | Latency ([1]; 0.3 mg/kg per os) [s]
7 | O=C([C@@H]1C[C@@H](O)CN1C(=O)CCCc1ccccc1)N1CCCC1 [SUAM 14432, N-[N-(4-phenylbutanoyl)-trans-4-hydroxy-L-prolyl]pyrrolidine] | 0.07 | 76 | 153 | –
8 | COc1ccc(O[C@H]2C[C@@H](C(=O)N3CCCC3)N(C(=O)CCCc3ccccc3)C2)cc1 [SUAM 14441, N-[N-(4-phenylbutanoyl)-cis-4-(4-methoxyphenoxy)-L-prolyl]pyrrolidine] | 0.01 | 101 | – | –
9 | COc1ccccc1O[C@H]1C[C@@H](C(=O)N2CCCC2)N(C(=O)CCCc2ccccc2)C1 [SUAM 14467, N-[N-(4-phenylbutanoyl)-cis-4-(2-methoxyphenoxy)-L-prolyl]pyrrolidine] | 0.008 | – | – | –
10 | COc1cccc(O[C@H]2C[C@@H](C(=O)N3CCCC3)N(C(=O)CCCc3ccccc3)C2)c1 [SUAM 14468, N-[N-(4-phenylbutanoyl)-cis-4-(3-methoxyphenoxy)-L-prolyl]pyrrolidine] | 0.03 | – | – | –
11 | COc1ccc(O[C@H]2C[C@@H](C(=O)N3CCCC3)N(C(=O)OCc3ccccc3)C2)cc1 [SUAM 14491, N-[N-benzyloxycarbonyl-cis-4-(4-methoxyphenoxy)-L-prolyl]pyrrolidine] | 0.04 | – | – | –
12 | O=C([C@@H]1C[C@H](O)CN1C(=O)CCCc1ccccc1)N1CCCC1 [SUAM 14496, N-[N-(4-phenylbutanoyl)-cis-4-hydroxy-L-prolyl]pyrrolidine] | 0.10 | 138 | 135 | 147
13 | COc1ccc(C(=O)O[C@@H]2C[C@@H](C(=O)N3CCCC3)N(C(=O)CCCc3ccccc3)C2)cc1 [SUAM 14497, N-[N-4-phenylbutanoyl)-trans-4-(4-methoxybenzoyloxy-L-prolyl]pyrrolidine] | 0.15 | – | – | –
14 | O=C(O[C@@H]1C[C@@H](C(=O)N2CCCC2)N(C(=O)CCCc2ccccc2)C1)c1ccccc1 [SUAM 14498] | 0.30 | – | – | –
15 | O=C(O[C@@H]1C[C@@H](C(=O)N2CCCC2)N(C(=O)CCCc2ccccc2)C1)c1ccc(Cl)cc1 [SUAM 14499, N-[N-(4-phenylbutanoyl)-trans-4-(4-chlorobenzoyloxy)-L-prolyl]pyrrolidine] | 0.20 | – | – | –
16 | CC(=O)O[C@@H]1C[C@@H](C(=O)N2CCCC2)N(C(=O)CCCc2ccccc2)C1 [SUAM 14506, N-[N-(4-phenylbutanoyl)-trans-4-acetoxy-L-prolyl]pyrrolidine] | 0.03 | – | 64 | –
17 | CC(=O)O[C@H]1C[C@@H](C(=O)N2CCCC2)N(C(=O)CCCc2ccccc2)C1 [SUAM 14507, N-[N-(4-phenylbutanoyl)-cis-4-acetoxy-L-prolyl]pyrrolidine] | 0.10 | – | 53 | –
